Assays:
greenhouse whiteflies = test: Test Example 1: yellow cloth material (Production Example 2) set beside tomato, count of adults; type: in vivo, Trialeurodes vaporariorum
Protocol: 0.4 Part of the insect growth regulator is dissolved in 40 parts of acetone and further 0.8 part of rape seed oil is added thereto. Thirty-one milliliters of the resulting solution is absorbed in a yellow cloth of 21 cm x 92 cm in size. Acetone is then vaporized to obtain a material for controlling pests containing 0.16 mg/cm² of the active ingredient. A material for controlling pests with pyriproxyfen as insect growth regulator was prepared according to Production Example 2. It was set at the same height as that of a container (80 cm x 112 cm x 45 cm) in which tomato having greenhouse whiteflies parasitized thereon had been planted. On the other hand, a yellow cloth containing no insect growth regulator was set as a control at a distance of about 8 m. On the predetermined day, the number of greenhouse whitefly adults parasitized on the tomato was counted.

Thrips palmi = test: Test Example 3: blue cloth material (Production Example 3) in glass vessel with cucumber seedlings, count of adults; type: in vivo; conditions: 0.16 mg/cm², 28° ±1°C
Protocol: The same procedure as in Production Example 2 is repeated except that a blue cloth replaces the yellow cloth, to obtain a material for controlling pests containing 0.16 mg/cm² of the active ingredient.
Soil was placed on the bottom of a glass vessel of 70 cm x 35 cm x 35 cm in size. Three cucumber seedlings, on which Thrips palmi had been parasitized, were planted at the central part of the glass vessel. After three days, a material for controlling pests with pyriproxyfen as insect growth regulator prepared according to Production Example 3 was formed into a size of 15 cm x 15 cm and set at a height of 5 cm above the ground. On the other hand, the same test was carried out using a blue cloth containing no insect growth regulator as a control.
On the predetermined day, the number of Thrips palmi adults parasitized on the cucumbers was counted. The tests were carried out in a room kept at 28° ±1°C.

sweetpotato whitefly [1] = test: Test Example 5: gravure-printed yellow Kent paper (Production Example 4) in net room with cabbages, count of larvae; type: in vivo, Bemisia tabaci; conditions: after 1 month; larvae parasitized on five randomly selected cabbages; yellow Kent paper 10 cm x 2 m, 5 g/m²; 800 adults released
Protocol: Five parts of the insect growth regulator is dissolved in 65 parts of a vegetable oil, and then 20 parts of a mineral oil and 10 parts of a surface active agent are added thereto and mixed. The resulting solution is applied to a roll of yellow Kent paper of 50 cm in width and 2,000 m in length by gravure printing to obtain a material for controlling pests containing 5 g/m² of the active ingredient. […] A material for controlling pests prepared according to Production Example 4 with pyriproxyfen (insect growth regulator), a cotton seed oil (vegetable oil), tetradecane (mineral oil) and Span 85® (surface active agent produced by ICI Americas Inc.) was formed into a size of 10 cm x 2 m. It was set at a height of 30 cm above the floor surface between the rows of cabbages. Eight hundred adults of sweetpotato whitefly were released in the net room. After 1 month, the number of larvae parasitized on five randomly selected cabbages was counted.

sweetpotato whitefly [2] = test: Test Example 7: yellow Kent paper (Production Example 6) in net cage, hatching inhibition; type: in vivo, Bemisia tabaci; conditions: yellow Kent paper 15 cm x 15 cm, 5 g/m², cotton seed oil, tetradecane, Span 85; eggs laid on kidney bean
Protocol: Five parts of the insect growth regulator is dissolved in 65 parts of a vegetable oil, and then 20 parts of a mineral oil and 10 parts of a surface active agent are added thereto and mixed. 2.25 Grams of the resulting solution is absorbed in a square yellow Kent paper having a side of 15 cm to obtain a material for controlling pests containing 5 g/m² of the active ingredient. The material for controlling pests containing pyriproxyfen (insect growth regulator), a cotton seed oil (vegetable oil), tetradecane (mineral oil) and Span 85® (surface active agent produced by ICI Americas Inc.) prepared according to Production Example 6 was formed into a size of 15 cm x 15 cm. It was set on one wall surface of a nylon net cage of 30 cm x 30 cm x 30 cm in size. About 100 adults of sweetpotato whitefly were released in the cage together with kidney bean on which the adults had been parasitized. One day after release of the adults, a potted kidney bean having no adults parasitized thereon was set in the cage for oviposition. Among the eggs laid on the potted kidney bean until the next day, the number of unhatched eggs was counted.

sweetpotato whitefly [3] = test: Test Example 8: yellow Kent paper (Production Example 7) in net cage, hatching inhibition; type: in vivo, Bemisia tabaci; conditions: yellow Kent paper 15 cm x 15 cm, 0.01 g/m², cotton seed oil; eggs laid on kidney bean
Protocol: 0.01 Part of the insect growth regulator is dissolved in 99.99 parts of a vegetable oil. The resulting solution is applied to a roll of yellow Kent paper of 50 cm in width and 2,000 m in length by gravure printing to obtain material for controlling pests containing 0.01 g/m² of the active ingredient. A material for controlling pests containing pyriproxyfen (insect growth regulator) and a cotton seed oil (vegetable oil) prepared according to Production Example 7 was formed into a size of 15 cm x 15 cm. It was set on one wall surface of a nylon net cage of 30 cm x 30 cm x 30 cm in size. About 100 adults of sweetpotato whitefly were released in the cage together with kidney bean on which the adults had been parasitized. One day after release of the adults, a potted kidney bean having no adults parasitized thereon was set in the cage for oviposition. Among the eggs laid on the potted kidney bean until the next day, the number of unhatched eggs was counted.

sweetpotato whiteflies = test: Test Example 11: yellow polyethylene sheet (Production Example 9), pest-controlling effect, count of adults; type: in vivo, Bemisia tabaci
Protocol: Ninety-eight parts by weight of a polyethylene resin (Sumikathene®; a registered trade mark of Sumitomo Chemical Co., Ltd.), 1 part by weight of pyriproxyfen, a juvenile hormone-like compound, and 1 part by weight of a polyethylene colored master batch for yellow coloration (SPEM 305 produced by Sumika Color Co., pigment content: 12 wt.%) are kneaded with a pressure kneader and then pelletized. The resulting pellet is extruded through an extruder equipped with a T-dies at 160° to 180°C to obtain a sheet-form material for controlling pests of 1 mm in thickness. A sheet-like material for controlling pests prepared according to Production Example 9 was formed into a size of 15 cm x 15 cm. It was set at the same height as that of a container (80 cm x 112 cm x 45 cm) in which tomato having greenhouse whiteflies parasitized thereon had been planted. On the other hand, a yellow film containing no insect growth regulator was set as a control in the same manner as in setting the above material for controlling pests. On the predetermined day, the number of greenhouse whitefly adults parasitized on the tomato was counted. In the same manner as in Test Example 10, the pest-controlling effect on sweetpotato whiteflies was examined.

## CC(COc1ccc(Oc2ccccc2)cc1)Oc1ccccn1 (centres unmarked) [pyriproxyfen, 4-phenoxyphenyl 2-(2-pyridyloxy)propyl ether]
Greenhouse whiteflies; 0 days elapsed after setting, 0.16 mg/cm² active ingredient, rape seed oil
  number of greenhouse whitefly adults parasitized on the tomato (mean value per cup): 102
Greenhouse whiteflies; 7 days elapsed after setting, 0.16 mg/cm²
  number of greenhouse whitefly adults parasitized on the tomato (mean value per cup): 82
Greenhouse whiteflies; 14 days elapsed after setting, 0.16 mg/cm²
  number of greenhouse whitefly adults parasitized on the tomato (mean value per cup): 82
Greenhouse whiteflies; 18 days elapsed after setting, 0.16 mg/cm²
  number of greenhouse whitefly adults parasitized on the tomato (mean value per cup): 53
Greenhouse whiteflies; 28 days elapsed after setting, 0.16 mg/cm²
  number of greenhouse whitefly adults parasitized on the tomato (mean value per cup): 18
Greenhouse whiteflies; 35 days elapsed after setting, 0.16 mg/cm²
  number of greenhouse whitefly adults parasitized on the tomato (mean value per cup): 12
Greenhouse whiteflies; 42 days elapsed after setting, 0.16 mg/cm²
  number of greenhouse whitefly adults parasitized on the tomato (mean value per cup): 5
Thrips palmi; 0 days elapsed after setting, blue cloth 15 cm x 15 cm
  number of Thrips palmi adults parasitized on the cucumbers: 5
Thrips palmi; 7 days elapsed after setting, blue cloth
  number of Thrips palmi adults parasitized on the cucumbers: 5
Thrips palmi; 14 days elapsed after setting, blue cloth
  number of Thrips palmi adults parasitized on the cucumbers: 3
Thrips palmi; 21 days elapsed after setting, blue cloth
  number of Thrips palmi adults parasitized on the cucumbers: 2
Sweetpotato whitefly [1]
  Number of larvae: 192
Sweetpotato whitefly [2]
  Hatching inhibitory rate (%): 90.6%
Sweetpotato whitefly [3]
  Hatching inhibitory rate (%): 100%
Sweetpotato whiteflies; 0 days elapsed after setting
  number of sweetpotato whitefly adults (pest-controlling effect): 70
Sweetpotato whiteflies; 7 days elapsed after setting
  number of sweetpotato whitefly adults (pest-controlling effect): 30
Sweetpotato whiteflies; 14 days elapsed after setting
  number of sweetpotato whitefly adults (pest-controlling effect): 20
Sweetpotato whiteflies; 18 days elapsed after setting
  number of sweetpotato whitefly adults (pest-controlling effect): 18
Sweetpotato whiteflies; 29 days elapsed after setting
  number of sweetpotato whitefly adults (pest-controlling effect): 8
Sweetpotato whiteflies; 35 days elapsed after setting
  number of sweetpotato whitefly adults (pest-controlling effect): 5

From EP0548931A1, “Material for controlling pests” (SUMITOMO CHEMICAL COMPANY, LIMITED, priority 1991, dated 1993)
